{"source": "paper PMC11309765", "about": "“Mechanism of the blood-brain barrier modulation by cadherin peptides” (Exploration of drug science, 2024)", "key": {"[1]": {"system": "BBB tight junctions", "details": "cited from earlier work", "source_text": "As BBBMs, the in vivo activities of ADT and HAV peptides to modulate the BBB were transient and reversible. […] Different cadherin peptides produced different durations of the BBB opening for different sizes of del ..."}, "[2]": {"system": "blood-brain barrier (BBB)", "details": "cited from earlier work", "source_text": "In addition, Gd-DTPA delivery to the brain was enhanced when co-administered with ADTC5 in living mice upon detection with magnetic resonance imaging (MRI). […] Different cadherin peptides produced different durations of the BBB opening for different sizes of del ..."}, "[3]": {"system": "Madin-Darby canine kidney (MDCK) cell monolayers", "details": "Val6 mutation; cited from earlier work", "source_text": "Currently, the mechanism of binding as well as the EC1 binding site of ADT peptides have not been elucidated; thus, this study was aimed at using nuclear magnetic resonance (NMR) and molecular docking experiments to determine ADTC5 binding properties (Table 1) on EC1. […] Therefore, the Val6 residue was mutated to the Glu6 or Tyr6 re ..."}, "[4]": {"system": "blood-brain barrier (BBB)", "details": "in-situ rat brain perfusion; cited from earlier work"}, "[5]": {"molecular_target": "T1, EC1 domain of human E-cadherin (Homo sapiens, UniProt P12830)", "T1 construct": "Strep-tag I (WSHPQFEK) (C); factor Xa cleavage site (IEGR) linker (C); made in house; host or cells: E. coli BL21(DE3), plasmid pASK-IBA6", "T1 sequence (P12830 155-292)": "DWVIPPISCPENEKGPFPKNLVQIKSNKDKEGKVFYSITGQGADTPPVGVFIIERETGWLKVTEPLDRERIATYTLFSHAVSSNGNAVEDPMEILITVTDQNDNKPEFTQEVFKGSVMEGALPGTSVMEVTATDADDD", "experiment": "1H-15N HSQC NMR titration of 15N-labeled EC1 (chemical shift perturbation, CSP)", "format": "binding", "source_text": "Our previous method was used to express and purify the ^15N-labeled EC1 domain [22]. Briefly, the plasmid (pASK-IBA6, Genosys, Woodland, TX) contains DNA construct of 138 amino acid residues. The EC1 domain has 110 residues connected to 28 amino acids from the EC2 domain sequence at the C-terminus tail followed by a WSHPQFEK sequence of Streptag I that is linked by an IEGR sequence for a factor Xa cleavage. Then, the plasmid was transformed into competent E. coli BL21(DE3) cells (New England Biosciences, Ipswich, MA). The cells were incubated at 37°C overnight on a plate with lysogeny broth (LB) agar containing […] ampicillin. A single colony of E. coli cells was picked and incubated in 10 mL of LB media followed by the addition of 10 μL ampicillin at 100 mg/mL concentration. Then, the mixture was incubated in an orbital shaker at 250 rpm and 37°C. ^15N-labeled NH4Cl was added to 250 mL of M9 minimal media in 1 L Erlenmeyer flask to produce the ^15N-labeled EC1 domain. A 24 μL of anhydrotetracycline (2 mg/mL; Promega Inc., Madison, WI) was spiked into the cell culture when it reached OD550 of 0.5–0.6 to induce the EC1 protein expression. Then, the cell mixture was incubated at 30°C for 6–7 h followed by cell harvesting using centrifugation at 4,500 xg. The resulting cell pellets were stored at −80°C.\nFor isolation of purified ^15N-EC1, E. coli cell pellets were lysed using 20,000 psi French press (Thermo Electron Corporation) in 10 mL of binding buffer. This binding buffer consists of 150 mM NaCl, 1.0 mM EDTA, 0.02% NaN3, and 100 mM Tris-HCl at pH = 8.0. The mixture was centrifuged at 21,000 xg, 4°C, and 1 h to get rid of cellular debris. The EC1 domain was in the supernatant and the Amicon Ultra protein concentrator [10 kDa molecular weight (MW) cut-off, EMD Millipore, Billerica, MA] was used to concentrate the protein upon centrifugation at 4,500 rpm, 20 min, and 4°C. […] The purity of pooled EC1 fractions was evaluated by SDS-PAGE. Protein concentration was calculated using UV spectrometry at 280 nm (coefficient absorption = 19,480 M^–1 cm^–1). […]"}}, "note": "“Also recorded” adds a separate entry of the source. Where a SMILES comes first, the peptide text is derived from it. Bridges are numbered along the chain shown (N, C = ends)."}
{"smiles": "CC(=O)N[C@H]1CSSC[C@@H](C(N)=O)NC(=O)[C@H](C(C)C)NC(=O)[C@@H]2CCCN2C(=O)[C@@H]2CCCN2C(=O)[C@H]([C@@H](C)O)NC(=O)[C@H](CC(=O)O)NC1=O", "note": "[ADTC5] (Ac-CDTPPVC-NH2; disulfide 1-7)", "values": [{"measurement": "anatomical structure of BBB tight junctions", "setting": "[1]", "result": "did not change"}, {"measurement": "duration of paracellular porosity for Galbumin", "setting": "[2]; 65 kDa Galbumin", "result": "less than 20 min"}, {"measurement": "delivery of mAb to brain", "setting": "[2]; 150 kDa mAb", "result": "had to be administered together with 150 kDa mAb for delivering mAb to the brain"}, {"measurement": "Gd-DTPA delivery to the brain", "setting": "[2]; co-administered, living mice, MRI", "result": "enhanced"}, {"measurement": "brain deposition of peptides, Galbumin and mAb", "setting": "[2]; i.v., co-administered, mice, mass spectrometry, NIRF, MRI", "result": "significantly enhanced brain deposition of peptides, Gd-labeled albumin (Galbumin), and mAb"}, {"measurement": "duration of in vivo paracellular opening for Gd-DTPA", "setting": "[2]; small molecule Gd-DTPA", "result": "less than 4 h"}, {"measurement": "modulatory activity in MDCK cell monolayers", "setting": "[3]", "result": "mutation of this residue reduced inhibitory activity in preventing the resealing of the paracellular pathway"}, {"measurement": "delivery of various molecules to the brain", "setting": "[4]", "result": "enhanced the delivery of various molecules to the brain"}, {"measurement": "EC1 residues with largest/significant NH chemical shift perturbation", "setting": "[5]; 1H-15N HSQC titration, pH 6.0", "result": "One of the dramatic changes was seen for residue I4 with larger CSP compared to other residues; also recorded: In addition to the strong effect of the NH of I4 residue, significant shifts were also observed in the NHs of I38, I53, V98, D103, and F113 residues; also recorded: large CSP changes on D103, and F113 residues at the C-terminal tail; also recorded: large CSP changes were also observed at the I4, I7, and S8 residues at the N-terminus domain"}, {"measurement": "relative binding affinity to EC1", "setting": "[5]; comparison among ADTC5, ADTC7, ADTC9", "result": "highest binding affinity to the EC1 domain of E-cadherin compared to ADTC7 and ADTC9; also recorded: binds better to the EC1 domain compared to ADTC7 and ADTC9"}, {"measurement": "CSP result in words", "setting": "[5]; comparison of CSP profiles / conformational effect, 1H-15N HSQC", "result": "influences the conformation of the EC1 C-terminal tail; also recorded: All seven clusters have consistent high CSPs on active residues T97, V98, and D103; also recorded: binding of ADTC5 to EC1 may induce conformational change at the C-terminal tail; also recorded: binding of ADTC5 can cause conformational change at the N-terminal region or domain swapping region"}]}
